Results as given in PubChem BioAssay (NCI).
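Following 48 hours of exposure in 96-well plates, responses at five concentrations were used to interpolate endpoints linearly. At the GI50, growth is halved. TGI marks complete inhibition of growth.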

Experiments:
Experiment in all cases: growth of human tumour cells (NCI), 48 h
[1] = test system: NCI-H23 lung
[2] = test system: NCI-H460 lung
[3] = test system: NCI-H522 lung
[4] = test system: NCI/ADR-RES ovarian
[5] = test system: OVCAR-3 ovarian
[6] = test system: OVCAR-4 ovarian
[7] = test system: OVCAR-5 ovarian
[8] = test system: OVCAR-8 ovarian
[9] = test system: PC-3 prostate
[10] = test system: RPMI-8226 leukemia
[11] = test system: RXF 393 renal
[12] = test system: SF-268 CNS
[13] = test system: SF-295 CNS
[14] = test system: SF-539 CNS
[15] = test system: SK-MEL-2 melanoma
[16] = test system: SK-MEL-28 melanoma
[17] = test system: SK-MEL-5 melanoma
[18] = test system: SK-OV-3 ovarian
[19] = test system: SN12C renal
[20] = test system: SNB-19 CNS
[21] = test system: SNB-75 CNS
[22] = test system: SR leukemia
[23] = test system: SW-620 colon
[24] = test system: TK-10 renal
[25] = test system: U251 CNS
[26] = test system: UACC-257 melanoma
[27] = test system: UACC-62 melanoma
[28] = test system: UO-31 renal

Cc1c(C(=O)O)n(-c2ccc(Cl)cc2)c2ncnc(N)c12
GI50 [1]: 16.7 µM | TGI [1]: 37.2 µM | GI50 [2]: 14.5 µM | TGI [2]: 37.8 µM | GI50 [3]: 16 µM | TGI [3]: 50.5 µM | GI50 [4]: 25.1 µM | TGI [4]: > 100 µM | GI50 [5]: 17.5 µM | TGI [5]: > 100 µM | GI50 [6]: 48.4 µM | TGI [6]: > 100 µM | GI50 [7]: 46.4 µM | TGI [7]: > 100 µM | GI50 [8]: 14 µM | TGI [8]: 59.9 µM | GI50 [9]: 19.4 µM | TGI [9]: 54.6 µM | GI50 [10]: 12.4 µM | TGI [10]: 35.8 µM | GI50 [11]: 13.6 µM | TGI [11]: 39.5 µM | GI50 [12]: 12.2 µM | TGI [12]: 38.9 µM | GI50 [13]: 28.7 µM | TGI [13]: > 100 µM | GI50 [14]: 22.7 µM | TGI [14]: 48.6 µM | GI50 [15]: 46.9 µM | TGI [15]: > 100 µM | GI50 [16]: 64.8 µM | TGI [16]: > 100 µM | GI50 [17]: 16.2 µM | TGI [17]: 29.9 µM | GI50 [18]: 43.9 µM | TGI [18]: 75.1 µM | GI50 [19]: 19.5 µM | TGI [19]: 57.1 µM | GI50 [20]: 36.4 µM | TGI [20]: 97.6 µM | GI50 [21]: 62 µM | TGI [21]: > 100 µM | GI50 [22]: 16.6 µM | TGI [22]: > 100 µM | GI50 [23]: 32.3 µM | TGI [23]: > 100 µM | GI50 [24]: 21.8 µM | TGI [24]: 70.1 µM | GI50 [25]: 31.8 µM | TGI [25]: > 100 µM | GI50 [26]: 36.2 µM | TGI [26]: > 100 µM | GI50 [27]: 17 µM | TGI [27]: 41.9 µM | GI50 [28]: 10.3 µM | TGI [28]: > 100 µM
